Reference: the supplement of paper PMC5908809

Legend:
Assay in all cases: relative IC50 (inflection point of fitted viability curve, relative to fitted max inhibition); higher = less sensitive
Details in all cases: 72 h
NK-92 (IL-2 2.5 ng/mL) = test system: NK-92 (IL-2 2.5 ng/mL)
Description: (§1)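 Drug sensitivity and resistance testing: 5 concentrations over a 10,000-fold range, 72 h at 37 °C, viability by CellTiter-Glo normalised to DMSO and benzethonium chloride controls. IC50 is the inflection point of a logistic fit (min fixed at 0, max fitted), so it is relative to the fitted maximal inhibition. Kept only where fitted max inhibition is at least 50%.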

NKL (IL-2 2.5 ng/mL) = test system: NKL (IL-2 2.5 ng/mL)
Description: as §1

KAI3 (IL-2 2.5 ng/mL) = test system: KAI3 (IL-2 2.5 ng/mL)
Description: as §1

NK-YS (IL-2 2.5 ng/mL) = test system: NK-YS (IL-2 2.5 ng/mL)
Description: as §1

YT (IL-2 2.5 ng/mL) = test system: YT (IL-2 2.5 ng/mL)
Description: as §1

DERL-7 (IL-2 2.5 ng/mL) = test system: DERL-7 (IL-2 2.5 ng/mL)
Description: as §1

[1] = test system: normal primary NK cells, pool 1 (3 donors), resting (IL-2 0 ng/mL)
Description: as §1

KHYG-1 (IL-2 2.5 ng/mL) = test system: KHYG-1 (IL-2 2.5 ng/mL)
Description: as §1

[2] = test system: normal primary NK cells, pool 2 (3 donors) (IL-2 2.5 ng/mL)
Description: as §1

IMC-1 (IL-2 20 ng/mL) = test system: IMC-1 (IL-2 20 ng/mL)
Description: as §1

SNK-6 (IL-2 2.5 ng/mL) = test system: SNK-6 (IL-2 2.5 ng/mL)
Description: as §1

[3] = test system: normal primary NK cells, pool 3 (3 donors) (IL-2 2.5 ng/mL)
Description: as §1

[4] = test system: normal primary NK cells, pool 1 (3 donors) (IL-2 2.5 ng/mL)
Description: as §1

SMILES | relative IC50 (NK-92 (IL-2 2.5 ng/mL)) [nM] | relative IC50 (NKL (IL-2 2.5 ng/mL)) [nM] | relative IC50 (KAI3 (IL-2 2.5 ng/mL)) [nM] | relative IC50 (NK-YS (IL-2 2.5 ng/mL)) [nM] | relative IC50 (YT (IL-2 2.5 ng/mL)) [nM] | relative IC50 (DERL-7 (IL-2 2.5 ng/mL)) [nM] | relative IC50 [1] [nM] | relative IC50 (KHYG-1 (IL-2 2.5 ng/mL)) [nM] | relative IC50 [2] [nM] | relative IC50 (IMC-1 (IL-2 20 ng/mL)) [nM] | relative IC50 (SNK-6 (IL-2 2.5 ng/mL)) [nM] | relative IC50 [3] [nM] | relative IC50 [4] [nM]
CS(=O)(=O)N1CCc2c(-c3cnc(N)nc3)nc(N3CCOCC3)nc21 | 316 | 451 | 384 | 940 | 1290 | 1000 | – | – | – | – | – | – | –
Cc1c(NC(=O)OC[C@@H]2COCCN2)cn2ncnc(Nc3ccc4c(cnn4Cc4cccc(F)c4)c3)c12 | 2400 | 3110 | 3180 | – | – | 2730 | 3970 | 2230 | 3090 | – | – | – | –
Cc1ccc(C(=O)N(CCCN)[C@@H](c2oc3cc(Cl)ccc3c(=O)c2Cc2ccccc2)C(C)C)cc1 | 20.9 | 5.2 | 10.9 | 3.75 | 24.2 | 21.8 | – | 3.04 | – | 3.17 | 4.13 | – | –
O=C(NOCC1CC1)c1ccc(F)c(F)c1Nc1ccc(I)cc1Cl | 3220 | 153 | 608 | 1650 | 1850 | 1310 | – | 851 | – | 2220 | 3940 | – | –
O=C(NOC[C@H](O)CO)c1ccc(F)c(F)c1Nc1ccc(I)cc1F | > 1000 | 19.9 | – | – | – | 10 | – | 31.6 | – | – | – | > 1000 | –
Oc1c2ccccc2c2c3c(cccc13)N=N2 | 4980 | 4960 | 10600 | 13200 | – | 2570 | – | 9700 | – | – | 12200 | – | 11000
COc1ccc(S(=O)(=O)Nc2cccnc2Nc2ccc(O)cc2)cc1 [ABT-751] | 122 | 381 | 243 | 135 | 207 | 294 | – | 196 | – | 283 | 76.1 | – | –
CON(C)C(=O)N1N=C(c2cc(F)ccc2F)S[C@@]1(CCCN)c1ccccc1 [ARRY-520] | 10.2 | 5.25 | – | 3.86 | 22.9 | 3.14 | > 1000 | 3.25 | – | – | 2.57 | – | –
O=C(Nc1c[nH]nc1-c1nc2ccc(CN3CCOCC3)cc2[nH]1)NC1CC1 [AT9283] | 65.8 | 85.5 | 69.8 | 41.9 | 135 | 41.1 | > 1000 | 47.2 | – | 78 | 39.7 | – | –
COc1ccc(-c2ccc3c(N4CCOC[C@@H]4C)nc(N4CCOC[C@@H]4C)nc3n2)cc1CO [AZD8055] | 121 | 5.08 | 10.3 | 77.3 | 55.6 | 21.7 | – | 135 | – | – | 16.3 | – | –
CC(C)(C#N)c1cc(Cn2cncn2)cc(C(C)(C)C#N)c1 [Anastrozole] | – | – | – | > 10000 | – | – | – | > 10000 | > 10000 | > 10000 | – | > 10000 | –
